Patent US20250332173A1, “COMPOUNDS AND METHODS FOR MODULATING NUCLEIC ACID SPLICING” (REMIX THERAPEUTICS INC., priority 2021, published 2025)
Read-outs that look alike come from different tables or passages of the source.

Assays:
[1] = system: K562 (human chronic myelogenous leukemia) cells; experiment: Cell Titer Glo 2.0 cell viability assay; assay type: cell-based; details: K562 cells, 72 hours, Cell Titer Glo 2.0, read-out: K562 GI50
MYB mRNA = experiment: RT-qPCR splicing assay, MYB canonical junction (CJ) and alternative junction (AJ) mRNA; assay type: cell-based, human; details: Homo sapiens; for AC50: increase in MYB alternative junction (AJ) mRNA, read-out: MYB AJ AC50
Summary of the method: (§1)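 A673 cells (normalized to PPIA) or K562 cells (normalized to GAPDH or GUSB) were treated 24 h at 37 °C with an 11-point 3-fold dilution series, top 10 uM, DMSO ≤0.25%. Cell lysates went to one-step RT-qPCR measuring canonical- and alternative-junction MYB or HTT transcripts.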

Target C = experiment: RT-qPCR splicing assay panel, Target C canonical junction (CJ) mRNA; assay type: cell-based, human; details: Homo sapiens; canonical junction qPCR panel, Table 5; read-out: Target C (decrease in CJ mRNA levels, IC50)
Summary of the method: (§2)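 A673 cells (DMEM/10% FBS) or K562 cells (IMDM/10% FBS) were treated 24 h at 37° C. with 11-point 3-fold dilutions (top 10 uM, ≤0.25% DMSO). Canonical-junction mRNA was quantified in lysates by RT-qPCR, normalized to GAPDH, GUSB or PPIA.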

SMN2 mRNA = experiment: RT-qPCR splicing assay, SMN2 canonical junction (CJ) mRNA; assay type: cell-based, human; details: Homo sapiens; canonical junction qPCR panel, Table 5; read-out: SMN2 (decrease in CJ mRNA levels, IC50)
Summary of the method: as §2

HTT mRNA = experiment: RT-qPCR splicing assay, HTT canonical junction (CJ) and alternative junction (AJ) mRNA; assay type: cell-based, human; details: Homo sapiens; for AC50: increase in HTT alternative junction (AJ) mRNA, read-out: HTT AJ AC50
Summary of the method: as §1

[2] = canonical junction qPCR panel, Table 5, read-out: MYB (decrease in CJ mRNA levels, IC50)
[3] = decrease in MYB canonical junction (CJ) mRNA, RT-qPCR, read-out: MYB CJ IC50
[4] = decrease in HTT canonical junction (CJ) mRNA, RT-qPCR, read-out: HTT CJ IC50
[5] = canonical junction qPCR panel, Table 5, read-out: HTT (decrease in CJ mRNA levels, IC50)

Structure (SMILES) | GI50 ([1]; Homo sapiens, K562, 72 h) | IC50 (MYB mRNA; [2]) | IC50 (MYB mRNA; [3]) | AC50 (MYB mRNA; RT-qPCR) | IC50 (Target C) | IC50 (SMN2 mRNA) | IC50 (HTT mRNA; [4]) | AC50 (HTT mRNA; RT-qPCR) | IC50 (HTT mRNA; [5]) | GI50 [1]
Cc1cn2cc(-c3ncc4c(=O)n([C@H]5CCNC(C)(C)C5)ccc4n3)cc(F)c2n1 [Compound 1497, 6-[(4S)-2,2-dimethyl-4-piperidyl]-2-(8-fluoro-2-methyl-imidazo[1,2-a]pyridin-6-yl)pyrido[4,3-d]pyrimidin-5-one] | 100 to 1000 nM | 100 to 1000 nM | 100 to 1000 nM | 100 to 1000 nM | 1000 to 10000 nM | < 100 nM | 1000 to 10000 nM | 100 to 1000 nM | 100 to 1000 nM | 
Cc1cn2cc(-c3cc(C)c4c(=O)n(C5CCNCC5)ccc4n3)cc(F)c2n1 [Compound 1524, 2-(8-fluoro-2-methyl-imidazo[1,2-a]pyridin-6-yl)-4-methyl-6-(4-piperidyl)-1,6-naphthyridin-5-one] | 100 to 1000 nM | 100 to 1000 nM | < 100 nM | 100 to 1000 nM | 100 to 1000 nM | < 100 nM | 100 to 1000 nM | 100 to 1000 nM | 100 to 1000 nM | 
Cc1cn2cc(-c3ncc4c(=O)n([C@@H]5CCNC(C)(C)C5)ccc4n3)cc(F)c2n1 [Compound 1496, 6-[(4R)-2,2-dimethyl-4-piperidyl]-2-(8-fluoro-2-methyl-imidazo[1,2-a]pyridin-6-yl)pyrido[4,3-d]pyrimidin-5-one] | 100 to 1000 nM | 100 to 1000 nM | 100 to 1000 nM | 100 to 1000 nM | 1000 to 10000 nM | < 100 nM | 1000 to 10000 nM | 100 to 1000 nM | 100 to 1000 nM | 
Cc1c(O)c(-c2ccc3c(=O)n([C@H]4CC[C@@H](N(C)C)CC4)ccc3n2)cc2cn(C)nc12 [Compound 1485, 6-[4-(dimethylamino)cyclohexyl]-2-(6-hydroxy-2,7-dimethyl-indazol-5-yl)-1,6-naphthyridin-5-one] | 100 to 1000 nM | 100 to 1000 nM | 100 to 1000 nM | 100 to 1000 nM | 100 to 1000 nM | < 100 nM | 100 to 1000 nM | 100 to 1000 nM | 100 to 1000 nM | 
Cc1cn2cc(-c3ncc4c(=O)n([C@@H]5CCN[C@@H](C)C5)ccc4n3)cc(F)c2n1 [Compound 1498, 2-(8-fluoro-2-methyl-imidazo[1,2-a]pyridin-6-yl)-6-[(2S,4R)-2-methyl-4-piperidyl]pyrido[4,3-d]pyrimidin-5-one] | 100 to 1000 nM | 100 to 1000 nM | < 100 nM | 100 to 1000 nM | 1000 to 10000 nM | < 100 nM | 1000 to 10000 nM | 1000 to 10000 nM | 1000 to 10000 nM | 
CNC12CCC(n3ccc4nc(-c5cc6cn(C)nc6c(C)c5O)ccc4c3=O)(CC1)C2 [Compound 1522] | < 100 nM | < 100 nM | < 100 nM | < 100 nM | 100 to 1000 nM | < 100 nM | 100 to 1000 nM | 100 to 1000 nM | 100 to 1000 nM | 
Cc1cn2nc(-c3ccc4c(=O)n(C5CCNC6(CC6)C5)ncc4n3)cc2c(C)n1 (stereo not drawn) [Compound 1547, 6-(4-azaspiro[2.5]octan-7-yl)-2-(4,6-dimethylpyrazolo[1,5-a]pyrazin-2-yl)pyrido[2,3-d]pyridazin-5-one] | 1000 to 10000 nM | 1000 to 10000 nM | 1000 to 10000 nM | 1000 to 10000 nM | 1000 to 10000 nM | 100 to 1000 nM | 1000 to 10000 nM | 100 to 1000 nM | 100 to 1000 nM | 
Cc1cn2nc(-c3ccc4c(=O)n([C@@H]5CCNC6(CC6)C5)ncc4n3)cc2c(C)n1 [Compound 1548, 6-[(7R)-4-azaspiro[2.5]octan-7-yl]-2-(4,6-dimethylpyrazolo[1,5-a]pyrazin-2-yl)pyrido[2,3-d]pyridazin-5-one] | 100 to 1000 nM | 100 to 1000 nM | 100 to 1000 nM | 100 to 1000 nM | 100 to 1000 nM | 100 to 1000 nM | 100 to 1000 nM | 100 to 1000 nM | 100 to 1000 nM | 
Cc1c(O)c(-c2ncc3c(=O)n([C@@H]4CCNC(C)(C)C4)ccc3n2)cc2cn(C)nc12 [Compound 1435] | 100 to 1000 nM | 100 to 1000 nM | 100 to 1000 nM | 100 to 1000 nM | > 10000 nM | < 100 nM | 1000 to 10000 nM | 1000 to 10000 nM | 1000 to 10000 nM | 
Cc1cn2nc(-c3ccc4c(=O)n([C@H]5CCNC6(CCC6)C5)ncc4n3)cc(C)c2n1 [Compound 1544, 6-[(8S)-5-azaspiro[3.5]nonan-8-yl]-2-(2,8-dimethylimidazo[1,2-b]pyridazin-6-yl)pyrido[2,3-d]pyridazin-5-one] | 100 to 1000 nM | 100 to 1000 nM | 100 to 1000 nM | 100 to 1000 nM | 100 to 1000 nM | 100 to 1000 nM | 100 to 1000 nM | 100 to 1000 nM | 100 to 1000 nM | 
Cc1cn2nc(-c3ccc4c(=O)n([C@@H]5CCN[C@@H](C6CC6)C5)ncc4n3)cc(C)c2n1 [Compound 1551] | 100 to 1000 nM | 100 to 1000 nM | 100 to 1000 nM | 100 to 1000 nM | 100 to 1000 nM | < 100 nM | 100 to 1000 nM | 100 to 1000 nM | 100 to 1000 nM | 
Cc1cn2cc(-c3nc(C)c4c(=O)n(C5CCNCC5)ccc4n3)cc(F)c2n1 [Compound 1491, 2-(8-fluoro-2-methyl-imidazo[1,2-a]pyridin-6-yl)-4-methyl-6-(4-piperidyl)pyrido[4,3-d]pyrimidin-5-one] | 100 to 1000 nM | 100 to 1000 nM | 100 to 1000 nM | 100 to 1000 nM | 100 to 1000 nM | < 100 nM | 100 to 1000 nM | 100 to 1000 nM | 100 to 1000 nM | 
Cc1cn2cc(-c3nc(C)c4c(=O)n(C5C[C@H](C)N[C@@H](C)C5)ccc4n3)cc(F)c2n1 (stereo partly drawn) [Compound 1523] | 100 to 1000 nM | 100 to 1000 nM | < 100 nM | 100 to 1000 nM | 1000 to 10000 nM | < 100 nM | 1000 to 10000 nM | 100 to 1000 nM | 100 to 1000 nM | 
Cc1cn2cc(-c3ncc4c(=O)n([C@H]5CCN[C@H](C)C5)ccc4n3)cc(F)c2n1 [Compound 1490, 2-(8-fluoro-2-methyl-imidazo[1,2-a]pyridin-6-yl)-6-[(2R,4S)-2-methyl-4-piperidyl]pyrido[4,3-d]pyrimidin-5-one] | 100 to 1000 nM | < 100 nM | < 100 nM | < 100 nM | 100 to 1000 nM | < 100 nM | 100 to 1000 nM | < 100 nM | < 100 nM | 
C[C@@H]1C[C@H](n2ccc3nc(-c4cc5cn(C)nc5cc4O)ncc3c2=O)CCN1 [Compound 1474] | 100 to 1000 nM | 100 to 1000 nM | 1000 to 10000 nM | 100 to 1000 nM | 1000 to 10000 nM | < 100 nM | 1000 to 10000 nM | 1000 to 10000 nM | 1000 to 10000 nM | 
Cc1cn2nc(-c3ccc4c(=O)n([C@H]5CCN[C@@H](C6CC6)C5)ncc4n3)cc(C)c2n1 [Compound 1550] | 1000 to 10000 nM | 100 to 1000 nM | 100 to 1000 nM | 100 to 1000 nM | 100 to 1000 nM | 100 to 1000 nM | 100 to 1000 nM | 100 to 1000 nM | 100 to 1000 nM | 
CNC12CCC(n3ccc4nc(-c5cc6cn(C)nc6cc5O)ccc4c3=O)(CC1)C2 [Compound 1525] | < 100 nM | < 100 nM | < 100 nM | < 100 nM | > 10000 nM | < 100 nM | 1000 to 10000 nM | 1000 to 10000 nM | 1000 to 10000 nM | 
Cc1c(O)c(-c2ccc3c(=O)n(C45CCC(NC(C)C)(CC4)C5)ccc3n2)cc2cn(C)nc12 [Compound 1526] | 100 to 1000 nM | < 100 nM | < 100 nM | < 100 nM | > 10000 nM | < 100 nM | > 10000 nM | 1000 to 10000 nM | 1000 to 10000 nM | 
Cc1cn2nc(-c3ccc4c(=O)n(C56CCC(N)(CC5)C6)ccc4n3)cc(C)c2n1 [Compound 1504, 6-(4-aminonorbornane-1-yl)-2-(2,8-dimethylimidazo[1,2-b]pyridazin-6-yl)-1,6-naphthyridin-5-one] | 100 to 1000 nM | < 100 nM | < 100 nM | < 100 nM | 1000 to 10000 nM | < 100 nM | 1000 to 10000 nM | 100 to 1000 nM | 100 to 1000 nM | 
Cc1c(O)c(-c2ncc3c(=O)n([C@H]4CC[C@H](N)C4)ccc3n2)cc2cn(C)nc12 [Compound 1521] |  | 100 to 1000 nM | 100 to 1000 nM | 100 to 1000 nM | 1000 to 10000 nM | < 100 nM | 1000 to 10000 nM | 100 to 1000 nM | 100 to 1000 nM | 100 to 1000 nM
